Test results from patent US11235029B2, “Methods for treating heart failure with a TRKB agonist” (Temple University-Of The Commonwealth System of Higher …, priority 2017, dated 2022).

Assays:
eNOS = test: immunoblot of eNOS phosphorylated at serine 1177 in myocytes; type: cell-based; conditions: acute infusion, 100 nM
Excerpt: FIG. 8 depicts an immunoblot of eNOS phosphorylated at serine 1177 (^ser1177p-eNOS) and total eNOS (t-eNOS), taken from myocytes under control conditions (NS) and treated with LM22A-4.
Another possible mechanism of protection granted by TrkB stimulation is eNOS stimulation. […] Thus, it is plausible that TrkB agonists enhance eNOS signaling. FIG. 8 depicts an immunoblot of eNOS phosphorylated at serine 1177 (^ser1177p-eNOS) and total eNOS (t-eNOS), taken from myocytes under control conditions (NS) and treated with LM22A-4.

[1] = tested on: mice with myocardial infarction; test: chronic infusion of TrkB agonist in mice with myocardial infarction (echocardiography, fibrosis, heart rate); type: in vivo
Protocol: FIG. 7, comprising FIG. 7A through FIG. 7C, depicts experimental results. FIG. 7A depicts rescue of cardiac defects following MI resulting from chronic infusion of LM22A-4, a specific agonist of TrkB (Massa S M, et a. J Clin Invest. 2010; 120:1774-85) at 0.2 mg/kg/day in saline, started 1 week after MI. […] FIG. 7B depicts cardiac tissue sections and quantitation of fibrosis observed in sham, MI, and MI+LM22A-4 groups. Compared to the MI group without treatment, fibrosis was lower in TrkB agonist-treated hearts.
FIG. 7A depicts rescue of cardiac defects following FIG. 7A depicts rescue of cardiac defects following MI resulting from chronic infusion of LM22A-4, a specific agonist of TrkB (Massa S M, et al. J Clin Invest. 2010; 120:1774-85), at 0.2 mg/kg/day in saline, started 1 week after MI.
Overall fibrosis was lower in TrkB agonist-treated hearts (FIG. 7B). FIG. 7B depicts cardiac tissue sections and quantitation of fibrosis observed in sham, MI, and MI+LM22A-4 groups. Compared to the MI group without treatment, fibrosis was lower in TrkB agonist-treated hearts.

BDNF = BDNF immunoblot of lysates from isolated control myocytes; type: cell-based
[2] = 0.2 mg/kg/day in saline, chronic infusion started 1 week after MI, 4 weeks after severe MI

## O=C(NCCO)c1cc(C(=O)NCCO)cc(C(=O)NCCO)c1 [LM22A-4, N,N′,N″-tris(2-hydroxyethyl)-1,3,5-benzenetricarboxamide]
eNOS
  eNOS activation by phosphorylation at serine 1177: activates eNOS
[1]; [2]
  LVDs: 6.1±0.25 mm
  ejection fraction (% EF): 23.3±2.1%
[1]; cardiac tissue sections, MI+LM22A-4 group
  fibrosis compared to the MI group without treatment: lower
[1]; chronic infusion, MI mice
  heart rate: 494±17.8 bpm
BDNF
  myocardial BDNF (immunoblot): induced myocardial BDNF
